Converted amounts (≈) assume the structure as drawn.
Columns and labels:
Pseudomonas aeruginosa [1] = test: Antimicrobial activity against AmpC overproducing Pseudomonas aeruginosa isolate Pae-beta-06 with PDC-2 variant by Etest; format: functional
Pseudomonas aeruginosa [2] = test: Antimicrobial activity against AmpC overproducing Pseudomonas aeruginosa isolate Pae-beta-09 with PDC-2 variant by Etest; format: functional
Pseudomonas aeruginosa [3] = test: Antimicrobial activity against AmpC overproducing Pseudomonas aeruginosa isolate Pae-beta-08 with PDC-2 variant by Etest; format: functional
Pseudomonas aeruginosa [4] = test: microbe, parasite or virus in culture; details: 12B
Pseudomonas aeruginosa [5] = test: microbe, parasite or virus in culture; format: functional; details: KG2505a
Pseudomonas aeruginosa [6] = test: Antimicrobial activity against AmpC overproducing Pseudomonas aeruginosa isolate Pae-beta-03 with PDC-2 variant by Etest; format: functional
Pseudomonas aeruginosa [7] = test: Antimicrobial activity against AmpC overproducing Pseudomonas aeruginosa isolate Pae-beta-13 with PDC-2 variant by Etest; format: functional
Pseudomonas aeruginosa [8] = test: Antimicrobial activity against AmpC overproducing Pseudomonas aeruginosa isolate Pae-beta-22 with PDC-4 variant by Etest; format: functional
Pseudomonas aeruginosa [9] = test: Antimicrobial activity against AmpC overproducing Pseudomonas aeruginosa isolate Pae-beta-28 with PDC-7 variant by Etest; format: functional
Pseudomonas aeruginosa [10] = test: Antimicrobial activity against AmpC overproducing Pseudomonas aeruginosa isolate Pae-beta-18 with PDC-3 variant by Etest; format: functional
Pseudomonas aeruginosa [11] = test: Antimicrobial activity against Pseudomonas aeruginosa isolate Pae-beta-05 with PDC-2 variant by Etest; format: functional
Pseudomonas aeruginosa [12] = test: Antimicrobial activity against AmpC overproducing Pseudomonas aeruginosa isolate Pae-beta-11 with PDC-2 variant by Etest; format: functional
Pseudomonas aeruginosa [13] = test: microbe, parasite or virus in culture; format: functional; details: KG2505a; remark: listed apart in the source
Pseudomonas aeruginosa [14] = test: Antimicrobial activity against AmpC overproducing Pseudomonas aeruginosa isolate Pae-beta-32 with PDC-10 variant by Etest; format: functional
Pseudomonas aeruginosa [15] = test: microbe, parasite or virus in culture; details: PAO1
Pseudomonas aeruginosa [16] = test: Antimicrobial activity against Pseudomonas aeruginosa isolate Pae-beta-30 with PDC-8 variant by Etest; format: functional
Pseudomonas aeruginosa [17] = test: Antimicrobial activity against AmpC overproducing Pseudomonas aeruginosa isolate Pae-beta-10 with PDC-2 variant by Etest; format: functional
Pseudomonas aeruginosa [18] = test: Antimicrobial activity against AmpC overproducing Pseudomonas aeruginosa isolate Pae-beta-15 with PDC-2 variant by Etest; format: functional
Pseudomonas aeruginosa [19] = test: Antimicrobial activity against AmpC overproducing Pseudomonas aeruginosa isolate Pae-beta-24 with PDC-5 variant by Etest; format: functional
Pseudomonas aeruginosa [20] = test: Antimicrobial activity against AmpC overproducing Pseudomonas aeruginosa isolate Pae-beta-27 with PDC-7 variant by Etest; format: functional
Pseudomonas aeruginosa [21] = test: microbe, parasite or virus in culture; format: functional; details: KG2505a; remark: listed apart in the source
Pseudomonas aeruginosa [22] = test: Antimicrobial activity against AmpC overproducing Pseudomonas aeruginosa isolate Pae-beta-20 with PDC-4 variant by Etest; format: functional
Pseudomonas aeruginosa [23] = test: Antimicrobial activity against AmpC overproducing Pseudomonas aeruginosa isolate Pae-beta-21 with PDC-4 variant by Etest; format: functional
Pseudomonas aeruginosa [24] = test: Antimicrobial activity against AmpC overproducing Pseudomonas aeruginosa isolate Pae-beta-07 with PDC-2 variant by Etest; format: functional
Pseudomonas aeruginosa [25] = test: Antimicrobial activity against AmpC overproducing Pseudomonas aeruginosa isolate Pae-beta-16 with PDC-3 variant by Etest; format: functional
Pseudomonas aeruginosa [26] = test: Antimicrobial activity against AmpC overproducing Pseudomonas aeruginosa isolate Pae-beta-12 with PDC-2 variant by Etest; format: functional
Pseudomonas aeruginosa [27] = test: microbe, parasite or virus in culture; format: functional; details: KG2505a; remark: listed apart in the source
Pseudomonas aeruginosa [28] = test: Antimicrobial activity against AmpC overproducing Pseudomonas aeruginosa isolate Pae-beta-04 with PDC-2 variant by Etest; format: functional
Pseudomonas aeruginosa [29] = test: Antimicrobial activity against AmpC overproducing Pseudomonas aeruginosa isolate Pae-beta-14 with PDC-2 variant by Etest; format: functional
Pseudomonas aeruginosa [30] = test: Antimicrobial activity against AmpC overproducing Pseudomonas aeruginosa isolate Pae-beta-25 with PDC-6 variant by Etest; format: functional
Pseudomonas aeruginosa [31] = test: microbe, parasite or virus in culture; format: functional; details: 12B
Pseudomonas aeruginosa [32] = test: microbe, parasite or virus in culture; format: functional; details: KG2505a; remark: listed apart in the source
Pseudomonas aeruginosa [33] = test: Antimicrobial activity against AmpC overproducing Pseudomonas aeruginosa isolate Pae-beta-17 with PDC-3 variant by Etest; format: functional
Pseudomonas aeruginosa [34] = test: microbe, parasite or virus in culture; details: 12B; remark: listed apart in the source
Pseudomonas aeruginosa [35] = test: Antimicrobial activity against Pseudomonas aeruginosa isolate Pae-beta-31 with PDC-9 variant by Etest; format: functional
Pseudomonas aeruginosa [36] = test: Antimicrobial activity against AmpC overproducing Pseudomonas aeruginosa isolate Pae-beta-23 with PDC-5 variant by Etest; format: functional
Pseudomonas aeruginosa [37] = test: Antimicrobial activity against Pseudomonas aeruginosa isolate Pae-beta-29 with PDC-8 variant by Etest; format: functional

| Compound | MIC (Pseudomonas aeruginosa [1]) [µg/mL] | MIC (Pseudomonas aeruginosa [2]) [µg/mL] | MIC (Pseudomonas aeruginosa [3]) [µg/mL] | MIC (Pseudomonas aeruginosa [6]) [µg/mL] | MIC (Pseudomonas aeruginosa [7]) [µg/mL] | MIC (Pseudomonas aeruginosa [8]) [µg/mL] | MIC (Pseudomonas aeruginosa [9]) [µg/mL] | MIC (Pseudomonas aeruginosa [10]) [µg/mL] | MIC (Pseudomonas aeruginosa [11]) [µg/mL] | MIC (Pseudomonas aeruginosa [12]) [µg/mL] | MIC (Pseudomonas aeruginosa [14]) [µg/mL] | MIC (Pseudomonas aeruginosa [16]) [µg/mL] | MIC (Pseudomonas aeruginosa [17]) [µg/mL] | MIC (Pseudomonas aeruginosa [18]) [µg/mL] | MIC (Pseudomonas aeruginosa [19]) [µg/mL] | MIC (Pseudomonas aeruginosa [20]) [µg/mL] | MIC (Pseudomonas aeruginosa [22]) [µg/mL] | MIC (Pseudomonas aeruginosa [23]) [µg/mL] | MIC (Pseudomonas aeruginosa [24]) [µg/mL] | MIC (Pseudomonas aeruginosa [25]) [µg/mL] | other results |
| --- | --- | --- | --- | --- | --- | --- | --- | --- | --- | --- | --- | --- | --- | --- | --- | --- | --- | --- | --- | --- | --- |
| CO/N=C(\C(=O)N[C@@H]1C(=O)N2C(C(=O)[O-])=C(C[N+]3(C)CCCC3)CS[C@H]12)c1csc(N)n1 | 32 (≈ 66.6 µM) | 32 (≈ 66.6 µM) | 32 (≈ 66.6 µM) | 64 (≈ 133 µM) | 16 (≈ 33.3 µM) | 16 (≈ 33.3 µM) | 16 (≈ 33.3 µM) | 128 (≈ 266 µM) | 16 (≈ 33.3 µM) | 32 (≈ 66.6 µM) | 32 (≈ 66.6 µM) | 8 (≈ 16.6 µM) | 32 (≈ 66.6 µM) | 128 (≈ 266 µM) | 64 (≈ 133 µM) | 64 (≈ 133 µM) | 16 (≈ 33.3 µM) | 32 (≈ 66.6 µM) | 32 (≈ 66.6 µM) | 32 (≈ 66.6 µM) | MIC (Pseudomonas aeruginosa [4]): 32 µg/mL (≈ 66.6 µM); MIC (Pseudomonas aeruginosa [5]): 1 µg/mL (≈ 2.08 µM); MIC (Pseudomonas aeruginosa [13]): 16 µg/mL (≈ 33.3 µM); MIC (Pseudomonas aeruginosa [15]): 2 µg/mL (≈ 4.16 µM); MIC (Pseudomonas aeruginosa [21]): 4 µg/mL (≈ 8.32 µM); MIC (Pseudomonas aeruginosa [26]): 32 µg/mL (≈ 66.6 µM); MIC (Pseudomonas aeruginosa [27]): 16 µg/mL (≈ 33.3 µM); MIC (Pseudomonas aeruginosa [28]): 32 µg/mL (≈ 66.6 µM); MIC (Pseudomonas aeruginosa [29]): 32 µg/mL (≈ 66.6 µM); MIC (Pseudomonas aeruginosa [30]): 32 µg/mL (≈ 66.6 µM); MIC (Pseudomonas aeruginosa [31]): 4 µg/mL (≈ 8.32 µM); MIC (Pseudomonas aeruginosa [32]): 4 µg/mL (≈ 8.32 µM); MIC (Pseudomonas aeruginosa [33]): 32 µg/mL (≈ 66.6 µM); MIC (Pseudomonas aeruginosa [34]): 32 µg/mL (≈ 66.6 µM); MIC (Pseudomonas aeruginosa [35]): 32 µg/mL (≈ 66.6 µM); MIC (Pseudomonas aeruginosa [36]): 32 µg/mL (≈ 66.6 µM) |
| C[C@@H](O)[C@H]1C(=O)N2C(C(=O)O)=C(SCCNC=N)C[C@H]12 [IMIPENEM ANHYDROUS] | 16 (≈ 53.4 µM) | 16 (≈ 53.4 µM) | 16 (≈ 53.4 µM) | 16 (≈ 53.4 µM) | 16 (≈ 53.4 µM) | 8 (≈ 26.7 µM) | 16 (≈ 53.4 µM) | 64 (≈ 214 µM) | 16 (≈ 53.4 µM) | 16 (≈ 53.4 µM) | 64 (≈ 214 µM) | 8 (≈ 26.7 µM) | 16 (≈ 53.4 µM) | 16 (≈ 53.4 µM) | 32 (≈ 107 µM) | 32 (≈ 107 µM) | 16 (≈ 53.4 µM) | 16 (≈ 53.4 µM) | 16 (≈ 53.4 µM) | 32 (≈ 107 µM) | MIC (Pseudomonas aeruginosa [37]): 16 µg/mL (≈ 53.4 µM); MIC (Pseudomonas aeruginosa [26]): 16 µg/mL (≈ 53.4 µM); MIC (Pseudomonas aeruginosa [28]): 16 µg/mL (≈ 53.4 µM); MIC (Pseudomonas aeruginosa [29]): 16 µg/mL (≈ 53.4 µM); MIC (Pseudomonas aeruginosa [30]): 8 µg/mL (≈ 26.7 µM); MIC (Pseudomonas aeruginosa [33]): 32 µg/mL (≈ 107 µM); MIC (Pseudomonas aeruginosa [35]): 16 µg/mL (≈ 53.4 µM); MIC (Pseudomonas aeruginosa [36]): 32 µg/mL (≈ 107 µM) |

Reference: ChEMBL document CHEMBL1629679, “Extended-spectrum cephalosporinases in Pseudomonas aeruginosa” (2009)
